# According to US20220288057A1, “CONJOINT THERAPY FOR TREATING SEIZURE DISORDERS” (XENON PHARMACEUTICALS INC., priority 2021, published 2022):
# Several values for one entry are separate records, joined by “and”; a condition that tells them apart may be missing. Equal entries are not always repeated. Where two headings read alike, the source gives them in different places.
# Experiments:
# [1] = system: tonic hindlimb seizure following corneal stimulation in CF-1 mice; test: Mouse maximal electroshock (MES) assay, 60 Hz 50 mA corneal stimulation; type: in vivo; conditions: for IC50: Mus musculus
# Experimental: The interaction of Compound A with other ASMs was evaluated after oral dosing in the mouse maximal electroshock (MES) assay to determine whether some combinations were favorable or unfavorable. Efficacy was quantified by calculating the fraction of animals with a tonic hindlimb seizure following corneal stimulation. Compound Preparation: Compound A was initially solubilized in DMSO. This solution was then added into a 0.5% methyl cellulose solution to create a more even and less aggregated compound suspension. Serial dilutions were prepared from the tube with the highest concentration of Compound A and the compound suspensions were further vortexed prior to animal dosing. The final concentration of DMSO was 5%, an amount with no apparent toxicity or neuroprotection in the MES assay. […] Animals: Adult male CF-1 albino mice (25-35 g) purchased from Harlan-Envigo were used. The mice were housed four per cage and had access to filtered water and chow ad libidum, throughout the experiment. MES Assay: Compounds were administered orally by gavage before testing unless indicated otherwise. During MES testing, a 60-Hz alternating current (50 mA) was delivered for 0.2 seconds through corneal electrodes to the mice. A drop of 0.5% Alcaine solution was placed on the eye prior to current delivery. The electrodes were subsequently placed gently onto the eyes of the animal and the electrical shock was initiated by triggering through a foot-pedal activator. The animals were restrained by hand and gently released as the shock was delivered and the seizure commenced. Animals were monitored for hind limb tonic extension as the end point for this test. Statistical analysis: All statistics were calculated using Prism version 7 software (Graphpad Software). The method used for each experiment is indicated in the results section. Concentration-response curves were calculated as best fits to the equation […] where X was the log of plasma concentration. Unless indicated otherwise, bottom was constrained to be 0. Top was constrained to be the value determined experimentally by vehicle control measurements. Compound A Dose Response: […]
# [2] = Clinical observations / behavioral signs in AC-MES studies; type: in vivo, mouse; conditions: male, CF-1, mouse, in vivo, read-out: plasma concentration of individual mouse showing behavioral signs (tremors, decreased activity, splayed hindlimbs)
# Summary of the method: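 Male CF-1 mice received the test compound by oral gavage at 1–10 mg/kg. Thirty minutes later they were given a 60 Hz, 40 mA, 0.2 s corneal stimulus. At testing, a qualitative observational neurological assessment recorded any departures from normal behaviour as a tolerability screen.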
# [3] = in vivo; conditions: mouse
# [4] = Compound A 1 mg/kg PO, 0.5 h before assay
# [5] = Compound A 1 mg/kg PO, 2 h before assay
# [6] = Compound A 2 mg/kg PO, 0.5 h before assay
# [7] = Compound A 2 mg/kg PO, 2 h before assay
# [8] = Compound A 4 mg/kg PO, 0.5 h before assay
# [9] = Compound A 4 mg/kg PO, 2 h before assay
# [10] = Compound A 8 mg/kg PO, 0.5 h before assay
# [11] = Compound A 8 mg/kg PO, 2 h before assay
structure (smiles),measurement,setting,value
"Cc1cc(N2CCc3cc(F)ccc3C2)cc(C)c1NC(=O)CC(C)(C)C [Compound A, N-[4-(6-fluoro-3,4-dihydro-1H-isoquinolin-2-yl)-2,6-dimethylphenyl]-3,3-dimethylbutanamide]",fraction of animals without tonic seizures,[1]; Compound A 0.25 mg/kg PO 2 h alone (phenytoin study),0/8
same,fraction of animals without tonic seizures,[1]; Compound A 0.75 mg/kg PO 2 h alone (phenytoin study),2/8
same,reduction of the fraction with tonic seizures,[1]; Compound A 1 mg/kg,26.7%
same,"maximum % seizures of fitted curve, reflecting efficacy of Compound A alone",[1]; Compound A 1 mg/kg PO 2 h,73.3%
same,number of mice without tonic seizures/total,[1]; Compound A 1 mg/kg PO 2 h + Vehicle IP 0.5 h (valproic acid study),4/15
same,fraction of mice without tonic seizures,[1]; Compound A 1 mg/kg PO 2 h alone (levetiracetam study),2/11
same,fraction of animals without tonic seizures,[1]; Compound A 1 mg/kg PO 2 h alone (phenytoin study),2/8
same,number of mice with tonic seizures/total number tested,[1]; [4],4/7
same,percentage of mice protected from hindlimb tonic extensor component,[1]; [4],42.9%
same,number of mice with tonic seizures/total number tested,[1]; [5],5/7
same,percentage of mice protected from hindlimb tonic extension,[1]; [5],28.6%
same,number of mice with tonic seizures/total number tested,[1]; [6],2/7
same,percentage of mice protected from hindlimb tonic extensor component,[1]; [6],71.4%
same,number of mice with tonic seizures/total number tested,[1]; [7],4/7
same,percentage of mice protected from hindlimb tonic extension,[1]; [7],42.9%
same,fraction of animals without tonic seizures,[1]; Compound A 2.5 mg/kg PO 2 h alone (phenytoin study),4/8
same,number of mice with tonic seizures/total number tested,[1]; [8],1/7
same,percentage of mice protected from hindlimb tonic extensor component,[1]; [8],85.7%
same,number of mice with tonic seizures/total number tested,[1]; [9],2/7
same,percentage of mice protected from hindlimb tonic extension,[1]; [9],71.4%
same,number of mice with tonic seizures/total number tested,[1]; [10],3/7
same,percentage of mice protected from hindlimb tonic extensor component,[1]; [10],71.4%
same,number of mice with tonic seizures/total number tested,[1]; [11],1/7
same,percentage of mice protected from hindlimb tonic extension,[1]; [11],85.7%
same,fraction of mice without tonic seizures,[1]; Compound A […] PO 2 h alone (levetiracetam study),3/8
same,IC50,"[1]; Compound A PO alone, data 2 hours after dosing, read-out: IC50 based upon brain concentration (inhibition of tonic seizures)",275 nM
same,IC50,"[1]; Compound A PO alone, data 2 hours after dosing, read-out: IC50 based upon plasma concentration (inhibition of tonic seizures)",154 nM
same,IC50,"[1]; Compound A alone (phenytoin study), read-out: IC50 for Compound A (inhibition of tonic seizures, plasma concentration)",147 nM
same,concentration at 30 min,"[2]; 7.5 mg/kg, Study 2B, Compound A 7.5 mg/kg group",746 nM
same,concentration at 30 min,"[2]; 7.5 mg/kg, Study 4B, Compound A 7.5 mg/kg group",750 nM
same,concentration at 30 min,"[2]; 10 mg/kg, Study 2A, Compound A 10 mg/kg group",391 nM
same,concentration at 30 min,"[2]; 10 mg/kg, Study 4A, Compound A 10 mg/kg group",390 nM
same,concentration at 30 min,"[2]; Study 2B, Compound A 10 mg/kg group, two mice",608 nM
same,concentration at 2 h,[3],30 nM and 11.1 ng/mL
